The structures appear in SMILES notation. Bounds are passed on as bounds.

The assay has as its system HCV replicon (5-2 Luc replicon-comprising cells). In words: HCV replicon assay (luciferase). Format: cell-based. The following applies: Hepatitis C virus; 5-2 Luc replicon cells, 24 hours with compound, luciferase activity. The source says: In one embodiment, the inhibitory activity of the compounds can be confirmed in a replicon assay that assesses the ability of a test compound to block or inhibit HCV replication in replicon cells. One example of a suitable replicon assay is the liver cell-line Huh 7-based replicon assay described in Lohmann et al., 1999, Science 285:110-113. A specific example of this replicon assay which utilizes luciferase translation is provided in the Examples Section. In one embodiment of this assay, the amount of test compound that yields a 50% reduction in translation as compared to a control cell (IC50) may be determined.
The inhibitory activity of certain exemplary compounds of the invention was confirmed using an HCV replicon assay. The HCV replicon can include such features as the HCV 5′ untranslated region including the HCV IRES, the HCV 3′ untranslated region, selected HCV genes encoding HCV polypeptides, selectable markers, and a reporter gene such as luciferase, GFP, etc. In the assay, actively dividing 5-2 Luc replicon-comprising cells (obtained from Ralf Bartenschlager; see Lohmann et al., 1999, Science 285:110-113) were seeded at a density of between about 5,000 and 7,500 cells/well onto 96 well plates (about 90 μl of cells per well) and incubated at 37° C. and 5% CO2 for 24 hours. Then, the test compound (in a volume of about 10 μl) was added to the wells at various concentrations and the cells were incubated for an additional 24 hours before luciferase assay. Briefly, the Bright-Glo reagent was diluted 1:1 with PBS and 100 μl of diluted reagent was added to each well. After 5 min of incubation at room temperature, luciferin emission was quantified with a luminometer. In this assay, the amount of test compound that yielded a 50% reduction in luciferase activity (IC50) was determined.

As for `O=C(Nc1cccc(-c2cc(-c3c(Cl)cccc3Cl)on2)c1)C(Cl)Cl` [Compound 39, 2,2-Dichloro-N-[3-[5-(2,6-dichlorophenyl)-3-isoxazolyl]phenyl]Acetamide], the concentration for half-maximal inhibition (IC50) is less than 10 µM.

For the compound `O=C(Nc1ccc(-c2cc(-c3ccccc3Cl)no2)cc1)C(Cl)Cl` [Compound 55, 2,2-Dichloro-N-[4-[3-(2-chlorophenyl)-5-isoxazolyl]phenyl]Acetamide], the IC50 was no more than 10 µM.

As for `O=C(Nc1ccc(-c2cc(-c3c(F)cccc3F)no2)cc1)C(Cl)Cl` [Compound 59, 2,2-Dichloro-N-[4-[3-(2,6-difluorophenyl)-5-isoxazolyl]phenyl]Acetamide], the IC50 was no more than 10 µM.
